Here are results for eleven compounds from US5378696A, “Rapamycin esters” (American Home Products Corporation, priority 1993, dated 1995).

≈ marks a conversion by molar mass, not a printed value. Where a name gives a salt, the structure may show the parent alone. Read-outs that look alike come from different tables or passages of the source. Some results are limits rather than exact numbers.

In experiment [1] the test system is lymphocyte proliferation, cells from the thymus of normal BALB/c mice (PHA and IL-1). Nature of the experiment: comitogen-induced thymocyte proliferation procedure (LAF). In kind it is cell-based. The settings on record: ratio, thymocytes 72 hours with PHA and IL-1, rapamycin 1.0. As to the method:
(§1) Immunosuppressive activity was evaluated in an in vitro standard pharmacological test procedure to measure lymphocyte proliferation (LAF) and in two in vivo standard pharmacological test procedures. The first in vivo procedure was a popliteal lymph node (PLN) test procedure which measured the effect of compounds of this invention on a mixed lymphocyte reaction and the second in vivo procedure evaluated the survival time of a pinch skin graft.
Briefly, cells from the thymus of normal BALB/c mice are cultured for 72 hours with PHA and IL-1 and pulsed with tritiated thymidine during the last six hours. […] Cells are harvested and incorporated; radioactivity is determined. inhibition of lymphoproliferation is assessed in percent change in counts per minute from non-drug treated controls. The results are expressed by the following ratio: [formula]

The subject of another experiment is pinch skin graft. Kind of experiment: survival time of pinch skin graft. In kind it is in vivo, mouse (male DBA/2 donors, male BALB/c recipients). The settings on record: intraperitoneally, mean graft survival time ± S.D. The method, then: as §1
The second in vivo test procedure is designed to determine the survival time of pinch skin graft from male DBA/2 donors transplanted to male BALB/c recipients. The method is adapted from Billingham R. E. and Medawar P. B., J. Exp. Biol. 28:385-402, (1951). Briefly, a pinch skin graft from the donor is grafted on the dorsum of the recipient as a homograft, and an autograft is used as control in the same region. […] Untreated recipients serve as rejection control. The graft is monitored daily and observations are recorded until the graft becomes dry and forms a blackened scab. This is considered as the rejection day. The mean graft survival time (number of days±S.D.) of the drug treatment group is compared with the control group.

A further experiment concerns Candida albicans 3669. Nature of the experiment: antifungal plate test procedure. In kind it is cell-based. As to the method:
(§2) The following represents the typical procedure used. Compound to be tested was placed on sterile dried 1/4" plate disks, and allowed to dry. Agar plates were seeded with fungi and allowed to solidify. The impregnated disks were placed on the seeded Agar surface and incubated for the time required for the particular culture. Results are expressed in MIC (μg/ml) to inhibit growth.

In experiment [2] the test system is Candida albicans ATCC 10231. Kind of experiment: antifungal plate test procedure. The format is cell-based. The method, then:
as §2

Experiment [3] concerns Candida albicans ATCC 38246. Kind of experiment: antifungal plate test procedure. In kind it is cell-based. The method, then: as §2
The test system of experiment [4] is Candida albicans ATCC 38247. Nature of the experiment: antifungal plate test procedure. In kind it is cell-based. As to the method: as §2
Experiment [5] relates to Candida albicans ATCC 38248. Nature of the experiment: antifungal plate test procedure. In kind it is cell-based. As to the method:
as §2

The mark [6] stands for this setting: Candida albicans, 3669, strain 3669, read-out: MIC.
The mark [7] stands for this setting: Candida albicans, ATCC10231, ATCC 10231, read-out: MIC.
Where [8] appears, read: Candida albicans, ATCC38246, ATCC 38246, read-out: MIC.
[9] abbreviates: Candida albicans, ATCC38247, ATCC 38247, read-out: MIC.
Where [10] appears, read: Candida albicans, ATCC38248, ATCC 38248, read-out: MIC.

For the compound `CO[C@H]1C[C@@H]2CC[C@@H](C)[C@@](OC(=O)CCC(=O)OCc3ccccc3)(O2)C(=O)C(=O)N2CCCC[C@H]2C(=O)O[C@H]([C@H](C)C[C@@H]2CC[C@@H](OC(=O)CCC(=O)OCc3ccccc3)[C@H](OC)C2)CC(=O)[C@H](C)/C=C(\C)[C@@H](OC(=O)CCC(=O)OCc2ccccc2)[C@@H](OC)C(=O)[C@H](C)C[C@H](C)/C=C/C=C/C=C/1C` [Example 1, Rapamycin-14,31,42-tris(monobenzylsuccinate)], the “LAF (ratio)” value in experiment [1] stood at 0.37. The “Skin Graft (days + SD), mean graft survival time” value (from here on “Skin Graft (days + SD)”) in the experiment with pinch skin graft is recorded as 8.2 ± 1.2 days. The MIC (with Candida albicans 3669 (setting [6]); in experiment [2] (setting [7]); in experiment [3] (setting [8]); in experiment [4] (setting [9]); in experiment [5] (setting [10])) was more than 0.4 µg/mL each time.
With `CO[C@H]1C[C@@H]2CC[C@@H](C)[C@@](O)(O2)C(=O)C(=O)N2CCCC[C@H]2C(=O)O[C@H]([C@H](C)C[C@@H]2CC[C@@H](OC(=O)CCC(=O)OCc3ccccc3)[C@H](OC)C2)CC(=O)[C@H](C)/C=C(\C)[C@@H](OC(=O)CCC(=O)OCc2ccccc2)[C@@H](OC)C(=O)[C@H](C)C[C@H](C)/C=C/C=C/C=C/1C` [Example 2, Rapamycin-31,42-bis(monobenzylsuccinate)], in experiment [1], the “LAF (ratio)” value was 0.9. In addition, in the experiment with pinch skin graft, the “Skin Graft (days + SD)” value is on record as 10.7 ± 1.2 days. The MIC was 0.4 µg/mL (≈ 0.309 µM) in the experiment on Candida albicans 3669 (setting [6]); more than 0.4 µg/mL in experiment [2] (setting [7]); 0.4 µg/mL (≈ 0.309 µM) in experiment [3] (setting [8]); more than 0.4 µg/mL in experiment [4] (setting [9]); 0.4 µg/mL (≈ 0.309 µM) in experiment [5] (setting [10]).
As to `CO[C@H]1C[C@@H]2CC[C@@H](C)[C@@](O)(O2)C(=O)C(=O)N2CCCC[C@H]2C(=O)O[C@H]([C@H](C)C[C@@H]2CC[C@@H](OC(=O)CCC(=O)OCc3ccccc3)[C@H](OC)C2)CC(=O)[C@H](C)/C=C(\C)[C@@H](O)[C@@H](OC)C(=O)[C@H](C)C[C@H](C)/C=C/C=C/C=C/1C` [Example 3, Rapamycin-42-(monobenzylsuccinate)], in experiment [1], the “LAF (ratio)” value is listed as 3.27. Besides, the “Skin Graft (days + SD)” value with pinch skin graft worked out at 12.7 ± 0.9 days. Besides, the MIC in the experiment on Candida albicans 3669 (setting [6]) was 0.1 µg/mL (≈ 0.0905 µM); in experiment [2] (setting [7]), 0.2 µg/mL (≈ 0.181 µM); in experiment [3] (setting [8]) it was 0.1 µg/mL (≈ 0.0905 µM); in experiment [4] (setting [9]) it was 0.4 µg/mL (≈ 0.362 µM); in experiment [5] (setting [10]), 0.1 µg/mL (≈ 0.0905 µM).
In the case of `CO[C@H]1C[C@@H]2CC[C@@H](C)[C@@](O)(O2)C(=O)C(=O)N2CCCC[C@H]2C(=O)O[C@H]([C@H](C)C[C@@H]2CC[C@@H](OC(=O)CCCC(=O)O)[C@H](OC)C2)CC(=O)[C@H](C)/C=C(\C)[C@@H](OC(=O)CCCC(=O)O)[C@@H](OC)C(=O)[C@H](C)C[C@H](C)/C=C/C=C/C=C/1C` [Example 4, Rapamycin-31,42-bishemiglutarate], the “LAF (ratio)” value in experiment [1] is reported as 0.56. Also, in the experiment on pinch skin graft, the “Skin Graft (days + SD)” value is 10.2 ± 1.7 days. Moreover, the MIC in the experiment on Candida albicans 3669 (setting [6]) is 0.4 µg/mL (≈ 0.35 µM); in experiment [2] (setting [7]), more than 0.4 µg/mL; in experiment [3] (setting [8]), 0.2 µg/mL (≈ 0.175 µM); in experiment [4] (setting [9]) it was more than 0.4 µg/mL; in experiment [5] (setting [10]), 0.2 µg/mL (≈ 0.175 µM).
Consider `CO[C@H]1C[C@@H]2CC[C@@H](C)[C@@](O)(O2)C(=O)C(=O)N2CCCC[C@H]2C(=O)O[C@H]([C@H](C)C[C@@H]2CC[C@@H](OC(=O)CCCC(=O)O)[C@H](OC)C2)CC(=O)[C@H](C)/C=C(\C)[C@@H](OC(=O)CCCC(=O)O)[C@@H](OC)C(=O)[C@H](C)C[C@H](C)/C=C/C=C/C=C/1C` [Example 5, Rapamycin-31,42-hemiglutarate bissodium salt], for which the “LAF (ratio)” value in experiment [1] (bissodium salt) is 0.02. Also, the “Skin Graft (days + SD)” value in the experiment with pinch skin graft (bissodium salt) came out at 8.0 ± 1.7 days. The MIC with Candida albicans 3669 (strain 3669, bissodium salt) is more than 0.4 µg/mL; in experiment [2] (ATCC 10231, bissodium salt), 0.4 µg/mL; in experiment [3] (ATCC 38246, bissodium salt), more than 0.4 µg/mL; in experiment [4] (ATCC 38247, bissodium salt) it was more than 0.4 µg/mL; in experiment [5] (ATCC 38248, bissodium salt), more than 0.4 µg/mL.
For the compound `CO[C@H]1C[C@@H]2CC[C@@H](C)[C@@](O)(O2)C(=O)C(=O)N2CCCC[C@H]2C(=O)O[C@H]([C@H](C)C[C@@H]2CC[C@@H](OC(=O)CCCC(=O)O)[C@H](OC)C2)CC(=O)[C@H](C)/C=C(\C)[C@@H](OC(=O)CCCC(=O)O)[C@@H](OC)C(=O)[C@H](C)C[C@H](C)/C=C/C=C/C=C/1C` [Example 6, Rapamycin-31,42-bishemiglutarate bistromethamine salt], in experiment [1], the “LAF (ratio)” value turned out to be 0.01. Also, in the experiment on pinch skin graft, the “Skin Graft (days + SD)” value stood at 8.0 ± 0.9 days. Also, the minimum inhibitory concentration (MIC) is more than 0.4 µg/mL against Candida albicans 3669 (strain 3669); 0.4 µg/mL in experiment [2] (ATCC 10231); more than 0.4 µg/mL in experiment [3] (ATCC 38246); 0.4 µg/mL in experiment [4] (ATCC 38247); more than 0.4 µg/mL in experiment [5] (ATCC 38248).
As for `CO[C@H]1C[C@@H]2CC[C@@H](C)[C@@](O)(O2)C(=O)C(=O)N2CCCC[C@H]2C(=O)O[C@H]([C@H](C)C[C@@H]2CC[C@@H](OC(=O)COCC(=O)O)[C@H](OC)C2)CC(=O)[C@H](C)/C=C(\C)[C@@H](O)[C@@H](OC)C(=O)[C@H](C)C[C@H](C)/C=C/C=C/C=C/1C` [Example 7, Rapamycin-42-hemi-3'-oxoglutarate], the “LAF (ratio)” value in experiment [1] was 0.97. Also, the “Skin Graft (days + SD)” value in the experiment on pinch skin graft was found to be 12.0 ± 1.0 days. Besides, the minimum inhibitory concentration (MIC) in the experiment with Candida albicans 3669 (setting [6]) came out at 0.2 µg/mL (≈ 0.194 µM); in experiment [2] (setting [7]) it was 0.1 µg/mL (≈ 0.0971 µM); in experiment [3] (setting [8]) it was 0.4 µg/mL (≈ 0.388 µM); in experiment [4] (setting [9]), 0.1 µg/mL (≈ 0.0971 µM); in experiment [5] (setting [10]) it was 0.1 µg/mL (≈ 0.0971 µM).
In the case of `CO[C@H]1C[C@@H]2CC[C@@H](C)[C@@](O)(O2)C(=O)C(=O)N2CCCC[C@H]2C(=O)O[C@H]([C@H](C)C[C@@H]2CC[C@@H](OC(=O)COCC(=O)O)[C@H](OC)C2)CC(=O)[C@H](C)/C=C(\C)[C@@H](OC(=O)COCC(=O)O)[C@@H](OC)C(=O)[C@H](C)C[C@H](C)/C=C/C=C/C=C/1C` [Example 8], the “LAF (ratio)” value in experiment [1] is “positive ratio”. The minimum inhibitory concentration (MIC) in the experiment on Candida albicans 3669 (setting [6]) is more than 0.4 µg/mL; in experiment [2] (ATCC 10231) it was 0.4 µg/mL (≈ 0.349 µM); in experiment [3] (setting [8]), more than 0.4 µg/mL; in experiment [4] (setting [9]), 0.4 µg/mL (≈ 0.349 µM); in experiment [5] (setting [10]), more than 0.4 µg/mL.
For `CO[C@H]1C[C@@H]2CC[C@@H](C)[C@@](O)(O2)C(=O)C(=O)N2CCCC[C@H]2C(=O)O[C@H]([C@H](C)C[C@@H]2CC[C@@H](OC(=O)CCC(=O)O)[C@H](OC)C2)CC(=O)[C@H](C)/C=C(\C)[C@@H](OC(=O)CCC(=O)O)[C@@H](OC)C(=O)[C@H](C)C[C@H](C)/C=C/C=C/C=C/1C` [Example 11, Rapamycin-31,42-bishemisuccinate], the “Skin Graft (days + SD)” value in the experiment on pinch skin graft is listed as 7.8 ± 1.7 days. In addition, the MIC (in the experiment on Candida albicans 3669 (setting [6]); in experiment [2] (setting [7]); in experiment [3] (setting [8]); in experiment [4] (setting [9]); in experiment [5] (setting [10])) was more than 0.4 µg/mL throughout.
In the case of `C=CCOC(=O)CCCC(=O)O[C@@H]1CC[C@@H](C[C@@H](C)[C@@H]2CC(=O)[C@H](C)/C=C(\C)[C@@H](O)[C@@H](OC)C(=O)[C@H](C)C[C@H](C)/C=C/C=C/C=C(\C)[C@@H](OC)C[C@@H]3CC[C@@H](C)[C@@](O)(O3)C(=O)C(=O)N3CCCC[C@H]3C(=O)O2)C[C@H]1OC` [Example 14, Rapamycin-42-allylglutarate], in experiment [1], the “LAF (ratio)” value turned out to be 3.42. For the same compound, the “Skin Graft (days + SD)” value in the experiment with pinch skin graft is 11.0 ± 0.0 days.
Taken in the same sequence, the figures for `C=CCOC(=O)CCCC(=O)O[C@@H]1/C(C)=C/[C@@H](C)C(=O)C[C@@H]([C@H](C)C[C@@H]2CC[C@@H](O)[C@H](OC)C2)OC(=O)[C@@H]2CCCCN2C(=O)C(=O)[C@]2(O)O[C@@H](CC[C@H]2C)C[C@H](OC)/C(C)=C/C=C/C=C/[C@@H](C)C[C@@H](C)C(=O)[C@@H]1OC` [Example 15, Rapamycin-31-allylglutarate] were 0.40 and 9.8 ± 0.8 days.

Broadly, the MIC is the smallest concentration in the dilution series that meets the test's criterion for growth inhibition.
